From ChEMBL document CHEMBL4002566, “S-substituted 3,5-dinitrophenyl 1,3,4-oxadiazole-2-thiols and tetrazole-5-thiols as highly efficient antitubercular agents” (Eur J Med Chem, 2017) come the findings set out here.

Common to all, as to format: functional
Assay [1] relates to Mycobacterium tuberculosis. Put plainly: Antimycobacterial activity against Mycobacterium tuberculosis H37Rv after 7 days by resazurin reduction microplate assay. The settings on record: 168 h. On the technique in general: The colour change of resazurin is a common sign of viable cells or microbes.
Assay [2] concerns Mycobacterium tuberculosis. Put plainly: Antimycobacterial activity against Mycobacterium tuberculosis H37Rv expressing GFP after 7 days. The settings on record: 168 h.
For assay [3], the system named is Mycobacterium tuberculosis. Nature of the assay: Antimycobacterial activity against Mycobacterium tuberculosis by broth microdilution method. A general note: In broth dilution the organism is exposed to a series of concentrations in liquid medium.

Molecules are shown by their SMILES. Converted amounts (≈) assume the structure as drawn.

The MIC is the lowest concentration found to suppress growth. Low values mean inhibition by little substance, high ones a need for much substance.

As for `Cc1nc2cc(Br)cc([N+](=O)[O-])c2nc1-c1ccccc1`, the MIC in assay [1] came out at 3.1 µM (≈ 1.07 µg/mL). This counts as single-digit micromolar.
Consider `COc1ccc(OCCNC(=O)c2cc([N+](=O)[O-])cc([N+](=O)[O-])c2)cc1`, for which the MIC in assay [2] was determined as 0.2 µM (≈ 0.0723 µg/mL). This lies in the sub-micromolar range.
Same read-out and setting: next, `Cn1nc([N+](=O)[O-])nc1Oc1ccc(C(C)(C)C)cc1`: 0.5 µM (≈ 0.138 µg/mL).
Regarding `CCC1Cn2cc([N+](=O)[O-])nc2O1` (centres undefined), the MIC in assay [3] amounted to 0.2 µM (≈ 0.0366 µg/mL).
